Assay: Rapamycin levels in hamster cheek tissue homogenate by LC/MS
Format: in vivo, golden Syrian hamsters
Conditions: for Rapamycin assayed concentration, Average: hamster cheek pouch, all samples
From the text: Upon sacrifice of the animals, samples of both of the Hamster cheeks were obtained and frozen at −80 degrees Celsius. The samples were labeled as to the amount of intraperitoneal dose received, and whether they were right (studied with chamber) or left.

With `CO[C@H]1C[C@@H]2CC[C@@H](C)[C@@](O)(O2)C(=O)C(=O)N2CCCC[C@H]2C(=O)O[C@H]([C@H](C)C[C@@H]2CC[C@@H](O)[C@H](OC)C2)CC(=O)[C@H](C)/C=C(\C)[C@@H](O)[C@@H](OC)C(=O)[C@H](C)C[C@H](C)/C=C/C=C/C=C/1C` [rapamycin] the “average tissue level of rapamycin in the hamster cheek pouch” value (from here on “average tissue level of rapamycin”) (0.1 mg/kg treatment group) was 7.37 ng/g, the “average tissue level of rapamycin” value (0.5 mg/kg treatment group) was 11.01 ng/g and the “average tissue level of rapamycin” value (2.0 mg/kg treatment group) was 40.83 ng/g. For the same molecule, the “average tissue level of rapamycin” value (10 mg/kg treatment group) was 55.15 ng/g, the “Rapamycin assayed concentration, Average” value (dosing 0.1 mg/kg ip) was 7.37 ng/g or pg/mg and the “Rapamycin assayed concentration, Average” value (dosing 0.5 mg/kg ip) was 11.01 ng/g or pg/mg. The “Rapamycin assayed concentration, Average” value (dosing 2 mg/kg ip) was 40.83 ng/g or pg/mg and the “Rapamycin assayed concentration, Average” value (dosing 10 mg/kg ip) was 55.15 ng/g or pg/mg.

From US8486960B2, “Formulations and methods for vascular permeability-related diseases or conditions” (Santen Pharmaceutical Co., Ltd., priority 2006, dated 2013)
